Laboratory results as given in US20250186431A1, “PHARMACEUTICAL COMPOSITION FOR RADIOTHERAPY, AND METHOD FOR TREATING SOLID CANCER USING SAME” (Kyoto University, priority 2022, published 2025).
Counter-ions that a name gives are not always drawn.

Key:
[1] = tested on: OVCAR8 tumor spheroid; experiment: Destruction of spheroid by monochromatic X-ray irradiation; format: cell-based, Human; conditions: 30 minutes, then 3 days incubation
Method: Irradiation of monochromatic X-rays was performed in beamline BL14B1 of large-scale synchrotron radiation facility SPring-8 located in Sayo-cho, Sayo-gun, Hyogo Prefecture, Japan. […] First, white X-ray generated from the bending magnet of SPring-8 was guided to an exit-position fixed two-crystal monochromator having silicon 311 crystal to generate a monoenergetic X-ray beam (monochromatic X-ray). SPring-8 storage ring was operated in the top-up mode under which fluctuation of X-ray intensity over time can be ignored due to a constant storage current of 100 mA to perform an irradiation experiment. The shape of the X-ray beam was controlled by using horizontal and vertical transport channel (TC) slits. The size of the X-ray beam at the position of a sample was 0.7 mm in height×1.4 mm in width. This is large enough to cover a spheroid having a size of 0.5 mm×0.5 mm. During experiments, the intensity of the X-ray beam was monitored in two ion chambers arranged on the optical axis. The X-ray transmitted was monitored by a CCD camera to control the position of the sample. […] Spheroids are placed at the bottom of tubes put in a sample rack.
The iodine atom-containing Hoechst compound (I-Hoechst) and spheroids were incubated (24 hours) in the same manner as in Test Example 3 to obtain spheroids having the Hoechst compound taken up. The spheroids were put in tubes and the tubes were plated at the sample rack of the X-ray irradiation device. Since the sample rack is designed such that samples can be moved on the XYZ stage, the experimenter can perform X-ray irradiation by moving samples on the optical axis without entering the experimental hutch. After completion of X-ray irradiation to a sample, the sample rack is designed to automatically move such that the irradiation position faces the next sample. Thus, a series of X-ray irradiation can be automatically performed (see, FIG. 6). Before irradiation, the position of a sample was confirmed by an optical microscope and a laser, and monitored by a CCD camera during X-ray irradiation. Note that, since the energy of X-ray is extremely high, observation of spheroids and an absorption control of a tube by the CCD camera was not made. A refractive X-ray image of a tube was obtained to monitor of a sample position. The photon flux at a position of a sample was calculated as 3.9×10^8 (photons/second) by use of the SPECTRA code.
The spheroids prepared as mentioned above were irradiated with a monochromatic X-ray (energy: 33.0 key, 33.2 keV or 33.4 keV) for 30 minutes. After X-ray radiation, spheroids were incubated in a CO2 incubator at 37° C. for 3 days and thereafter, observed by a confocal microscope (visible light and fluorescent light). […]

[2] = tested on: OVCAR8 tumor spheroid (hypoxic or normoxic); experiment: Destruction of hypoxic spheroid by monochromatic X-ray irradiation; format: cell-based, Human; conditions: then monochromatic X-ray
Method: The iodine atom-containing Hoechst compound (I-Hoechst) and spheroids were incubated (24 hours) in the same manner as in Test Example 3 to obtain spheroids having the Hoechst compound taken up therein. The spheroids were put in tubes and further incubated in a hypoxic (0% oxygen concentration) condition for further 18 hours. As a control, spheroids were incubated in a normal (not hypoxic) oxygen condition (20% oxygen concentration) in the same manner for 18 hours. After incubation in a hypoxic (or normoxic) condition, the spheroids were irradiated with monochromatic X-rays in the same manner as in Test Example 5. In the Test, whether spheroids are placed in a hypoxic condition was checked by inducing expression of a hypoxic marker, HIF-1α. Note that, HIF-1α is a kind of a hypoxia inducible factor and measurable by a commercially available kit.
Furthermore, spheroids (nanoparticles carrying an iodine atom-containing Hoechst compound-spheroid) prepared in Test Example 8 are irradiated with monochromatic X-rays under a hypoxic condition in the same manner as in Test Example 7. It is confirmed that hypoxic spheroids irradiated with the X-rays are destroyed.

[3] = tested on: DNA double strand in OVCAR8 tumor spheroid; experiment: γH2AX assay of spheroids immediately after monochromatic X-ray irradiation; format: cell-based, Human
Method: For investigating the mechanism of how to destroy spheroids, spheroids were irradiated with a monochromatic X-ray for 30 minutes. Immediately after irradiation and before incubation, spheroids were subjected to γH2AX assay to confirm the state of a DNA double strand. In the γH2AX assay, if a double strand is cleaved, red fluorescence is emitted. The γH2AX assay was performed by use of a commercially available kit in accordance with the instructions attached thereto.

[4] = tested on: OVCAR8 tumor spheroid; experiment: Uptake into tumor spheroid, confocal microscopy; format: cell-based, Human; conditions: 5 nmol/mL
Method: Human ovarian cancer cell OVCAR8 expressing green fluorescent protein (GFP) was used as a cancer cell. A tumor spheroid (hereinafter also referred to as “spheroid”) was formed from the cancer cell. Cancer cell OVCAR8 was cultured on RPMI1640 medium containing 10% inactivated FBS and 1% penicillin/streptomycin in a culture dish of 100 mm in diameter. For forming spheroids, […] of OVCAR8 cells were seeded in PrimeSurface96U culture plate (MS-9096U, Sumitomo Bakelite Co., Ltd). The OVCAR8 cells were cultured in a CO2 incubator at 37° C. for 7 days. Since the cells were not able to attach to a hydrophilic plate surface, the cells came together at the bottom of a well and formed three-dimensional spheroids at the bottom. In this manner, spheroids (estimated number of cells: approximately 100,000) of 500 μm in diameter were obtained.
Subsequently, an iodine atom-containing Hoechst compound (I-Hoechst-3HCl) (0.1 mg, 151.57 nmol) was dissolved in water (1.5 mL) to prepare a solution containing the iodine atom-containing Hoechst compound (amount of the Hoechst compound: 100 nmol/mL). […]
For the horizontal row, images in the column indicated by “GFP” are the observation results based on a fluorescence (green), whereas images in the column indicated by “I-Hoechst” are observation results based on staining (blue) with the Hoechst compound. […]

[5] = tested on: ovarian cancer OVCAR8 cells; experiment: Cytotoxicity test by LDH (lactate dehydrogenase) method; format: cell-based, Human
Method: A Hoechst compound (normal compound containing no iodine atom) is generally considered to have low toxicity. The following experiment was carried out to confirm that iodine atom-containing Hoechst compounds have low toxicity. Iodine atom-containing Hoechst compounds (I-Hoechst, 3HCl) different in addition amount were each incubated with ovarian cancer OVCAR8 cells. Cytotoxicity was investigated by a commercially available kit in accordance with LDH (lactate dehydrogenase) method.
Furthermore, the safety of the nanoparticles carrying an iodine atom-containing Hoechst compound is confirmed in the same manner as in Test Example 6.

[6] = tested on: Human ovarian cancer cell OVCAR8 expressing GFP; experiment: Uptake by cancer cell, confocal microscopy; format: cell-based; conditions: 50 nmol/mL, 24 hours, 37° C.
Method: Human ovarian cancer cell OVCAR8 expressing green fluorescent protein (GFP) was used as a cancer cell. Cancer cell OVCAR8 was cultured on RPMI1640 medium containing 10% inactivated FBS and 1% penicillin/streptomycin in a culture dish having a diameter of 100 mm. Furthermore, the iodine atom-containing Hoechst compound (I-Hoechst-3HCl) (0.1 mg, 151.57 nmol) was dissolved in water (0.15 mL) to prepare a solution (the amount of Hoechst compound: 1 μmol/mL) containing the iodine atom-containing Hoechst compound. The solution was added to the culture solution such that the amount of the Hoechst compound in the culture solution became 50 nmol/mL and incubated in a CO2 incubator at 37° C. for 24 hours. Thereafter, the culture medium was removed and the cells were washed. The cells were observed by a confocal microscope. Cell nuclei can be detected based on staining with a Hoechst compound (blue color emission) and expression of GFP (green fluorescence). […]
Nanoparticles (IH-BPMO) carrying an iodine atom-containing Hoechst (I-Hoechst) were added to a medium containing cancer cells and culture was performed for 24 hours in accordance with Test Example 8. Fluorescence was observed by a microscope.

## CN1CCN(c2ccc3nc(-c4ccc5nc(-c6ccc(O)cc6)[nH]c5c4)[nH]c3c2)CC1 [Hoechst 33258, reference compound]
[1]; any of the monochromatic X-rays (33.0, 33.2 or 33.4 keV)
  Spheroid destruction: spheroids were not destroyed

## CN1CCN(c2ccc3nc(-c4ccc5nc(-c6ccc(O)c(I)c6)[nH]c5c4)[nH]c3c2)CC1 [Hoechst 33342 analog 2]
[1]; monochromatic X-ray 33.0 keV
  Spheroid destruction: spheroids were not destroyed
[1]; monochromatic X-ray 33.2 keV
  Spheroid destruction: destroyed into pieces
[1]; monochromatic X-ray 33.4 keV
  Spheroid destruction: spheroids were destroyed even though the degree of destruction was lower than the 33.2-keV monochromatic X-ray
[2]; 0% oxygen 18 hours
  Spheroid destruction in hypoxic condition: effectively destroyed
[2]; 20% oxygen 18 hours
  Spheroid destruction in normoxia condition: effectively destroyed
[3]; 33.0 keV, 30 minutes, immediately after irradiation
  DNA double strand break (γH2AX red fluorescence): no DNA double strands were broken
[3]; 33.2 keV, 30 minutes, immediately after irradiation
  DNA double strand break (γH2AX red fluorescence): a DNA double strand was broken
[3]; 33.4 keV, 30 minutes, immediately after irradiation
  DNA double strand break (γH2AX red fluorescence): a DNA double strand was broken although the degree of double strand break is lower than the 33.2-keV monochromatic X-ray
[3]; no irradiation with monochromatic X-ray
  DNA double strand break (γH2AX red fluorescence): no DNA double strands were broken

## CN1CCN(c2ccc3nc(-c4ccc5nc(-c6ccc(O)c(I)c6)[nH]c5c4)[nH]c3c2)CC1 [I-Hoechst-3HCl, Hoechst 33342 analog 2 trihydrochloride]
[4]; confocal microscope
  Permeation into interior of spheroid: reaches not only cells close to the surface of a spheroid but also cells located at the center of the spheroid
[4]; incubation 1, 24, 96 hours
  Uptake and distribution in spheroids: efficiently taken up by spheroids and uniformly distributed over the entire spheroids 24 hours later
[5]
  Concentration at which no toxicity was shown (LDH method): ≤ 20 µM
[6]
  Uptake and localization in cancer cell: taken up within the cell, transported to the nucleus of the cell and localized in DNA
